Measurements from patent publication US20140371304A1, “METHOD FOR SUPPRESSING TUMORIGENICITY OF STEM CELLS” (SUCAMPO AG, priority 2013, published 2014).

System: C57/BL6 mouse embryonic stem cells
Assay: Tumor formation in SCID-beige mice from mouse embryonic stem cells pre-treated with compound
Type: in vivo
Conditions: for Weight of kidney capsule tumor, mean / Volume of kidney capsule tumor, (after harvesting) mean / Volume of kidney capsule tumor, (within mice) mean / Weight of testis tumor, mean / Volume of testis tumor, (after harvesting) mean / Volume of testis tumor, (within mice) mean: MES cells treated with 1 micromolar for total 120 hrs, 1×10^6 cells/site injected to Fox Chase SCID-beige mice, 3 weeks post injection; for Weight of kidney capsule tumor, mean / Weight of testis tumor, mean: after harvesting; for Volume of kidney capsule tumor, (after harvesting) mean / Volume of testis tumor, (after harvesting) mean: measured after harvesting; for Volume of kidney capsule tumor, (within mice) mean / Volume of testis tumor, (within mice) mean: measured before harvesting; for tumorigenic potential of mouse ES cells: conclusion in words; for tumorigenic potential of mouse ES cells / volume and weight of the tumor tissues in kidneys and testes: MES cells treated with 1 micromolar, injected to SCID-beige mice; for volume and weight of the tumor tissues in kidneys and testes: result in words
Experimental: ESGRO COMPLETE™ C57/BL6 mouse embryonic stem cells (MES, Millipore # SF-CMTI-2) were grown in 0.1% gelatin coated T75 culture flasks using ESGRO complete serum free clonal grade medium (Millipore # SF001-B) and ESGRO complete supplement (Millipore # SF012-250, containing selective GSK3β inhibitor). Cells were treated for 96 hrs with either 1 micromolar of Compound-1 ((−)-7-[(2R,4aR,5R,7aR)-2-(1,1-difluoropentyl)-2-hydroxy-6-oxooctahydrocyclopenta[b]pyran-5-yl]heptanoic acid), Compound-2 ((+)-isopropyl (Z)-7-[(1R,2R,3R,5S)-3,5-dihydroxy-2-(3-oxodecyl)cyclopentyl]hept-5-enoate) or vehicle (0.1% DMSO) until they reached 60% confluence. Drugs and media were changed daily. Cells were incubated in the presence of freshly added drug for 96 hrs, and then tested for mycoplasma over the next 24 hrs. Therefore, the cells were exposed to vehicle or Compound-1 or -2 for a total of 120 hrs. The cells were harvested and mixed with 30% matrigel. The mixture was injected to Fox Chase SCID-beige mice at 1×10^6 cells/site Tumors were collected after 3 weeks of post injection from kidney and testis. Tumor volumes were measured before and after harvesting from the mice. Tumor weight was also measured after harvesting from mice.

SMILES | Weight of kidney capsule tumor, mean | Volume of kidney capsule tumor, (after harvesting) mean | Volume of kidney capsule tumor, (within mice) mean | Weight of testis tumor, mean | Volume of testis tumor, (after harvesting) mean | Volume of testis tumor, (within mice) mean | tumorigenic potential of mouse ES cells | volume and weight of the tumor tissues in kidneys and testes
CCCCC(F)(F)[C@@]1(O)CC[C@H]2[C@@H](CC(=O)[C@@H]2CCCCCCC(=O)O)O1 [Compound-1, (−)-7-[(2R,4aR,5R,7aR)-2-(1,1-difluoropentyl)-2-hydroxy-6-oxooctahydrocyclopenta[b]pyran-5-yl]heptanoic acid] | 1.40 g | 2.10 cm^3 | 5.6 cm^3 | 1.87 g | 3.70 cm^3 | 10.42 cm^3 | greatly reduce | reduced
CCCCCCCC(=O)CC[C@@H]1[C@@H](C/C=C\CCCC(=O)OC(C)C)[C@@H](O)C[C@H]1O [Compound-2, (+)-isopropyl (Z)-7-[(1R,2R,3R,5S)-3,5-dihydroxy-2-(3-oxodecyl)cyclopentyl]hept-5-enoate] | 2.13 g | 5.44 cm^3 | 9.12 cm^3 | 1.33 g | 2.68 cm^3 | 5.66 cm^3 | greatly reduce | reduced
